Patent US10227357B2, “Compounds and methods for kinase modulation, and indications therefor” (Plexxikon Inc., priority 2012, dated 2019)

These molecules were tested against T1, c-kit mutant D816V (Homo sapiens, UniProt P10721, D816V/DEL694-753) (assay: c-Kit mutant D816V biochemical assay, AlphaScreen). Conditions: c-kit D816V biochemical inhibitory activity; read-out: Biochemical activity (IC50 μM) Kit D816V.
T1 construct: residues 551-934, kinase insertion domain residues 694-753 deleted; 6x-histidine (N); made in house; host or cells: E. coli Arctic Express (DE3) RIL (Stratagene)
T1 sequence (P10721 with tags, fused parts or gaps DEL694-753/D816V): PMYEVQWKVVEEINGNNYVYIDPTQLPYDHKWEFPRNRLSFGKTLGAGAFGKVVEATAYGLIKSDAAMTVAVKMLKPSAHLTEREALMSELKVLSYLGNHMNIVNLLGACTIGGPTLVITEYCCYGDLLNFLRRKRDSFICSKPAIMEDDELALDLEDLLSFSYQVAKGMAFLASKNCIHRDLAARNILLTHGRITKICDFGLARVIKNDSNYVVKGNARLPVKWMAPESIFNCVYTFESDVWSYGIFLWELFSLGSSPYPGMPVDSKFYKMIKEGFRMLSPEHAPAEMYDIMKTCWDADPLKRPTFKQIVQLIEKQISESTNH
Experimental: Compounds to be tested were dissolved in DMSO to a concentration of 20 mM. These were diluted 30 μl into 120 μl of DMSO (4 mM) and 1 μl was added to an assay plate. These were then serially diluted 1:3 (50 μl to 100 μl DMSO) for a total of 8 points. Plates were prepared such that each kinase reaction is 20 μl in 1× kinase buffer (25 mM HEPES, pH 7.2, 8 mM MgCl2, 2 mM MnCl2, 50 mM NaCl, 0.01% Brij, 1 mM DTT, 0.01% BSA), 5% DMSO and 10 μM ATP. […] After incubation of the kinase reaction for 30 minutes at room temperature, 5 μl of donor beads (Streptavidin coated beads (Perkin Elmer Life Science) final concentration 7.5 μg/ml) in stop buffer (25 mM Hepes pH 7.5, 100 mM EDTA, 0.01% BSA) was added, the sample was mixed and incubated for 20 minutes at room temperature before adding 5 μl of acceptor beads (PY20 coated beads (Perkin Elmer Life Science) final concentration 7.5 μg/ml) in stop buffer. The samples were incubated for 60 minutes at room temperature and the signal per well was read on EnVision reader. […] The signal vs. compound concentration was used to determine the IC50.
Cells were grown in Terrific Broth (TB) media to an OD600 of 0.6 at 37° C. at which temperature was reduced to 10° C., protein was induced with 1.0 mM IPTG for 18 hours and harvested by centrifugation at 8000×g for 20 minutes. Cells were re-suspended in 0.1M KPO4 pH 8.0, 250 mM NaCl, 10% Glycerol, 0.75% NP-40, 25 mM Imidazole, 5 mM BME with 0.2 mg/ml Lysosyme, 2.0 mM PMSF, 25 μg/ml DNAse I, incubated in ice for 30 minutes and lysed with a cell disruptor (MicroFluidics). The lysate was clarified by centrifugation at 20,000×g for 2 hours. The protein was captured with Talon resin (Clontech). Contaminating proteins were washed off with 25 mM Tris-HCl pH 8.3, 250 mM NaCl, 15% Glycerol, 1% Triton X-100, and protein eluted using 100 mM EDTA. The protein was further purified using Gel Filtration column 26/600 Superdex 200 (GE) in 50 mM Tris-HCl, pH 8.0, 250 mM NaCl, 15% Glycerol, 5 mM BME. The protein was aliquoted and flash-frozen in liquid Nitrogen.

Compound | IC50 [µM]
CC(NC(=O)N1CCN(c2ncnc3[nH]c(-c4ccc(Cl)cc4)cc23)C[C@H]1C)c1ccc(Cl)cc1 (stereo in doubt) [P-0021, (2R)-N-[(1S)-1-(4-chlorophenyl)ethyl]-4-[6-(4-chlorophenyl)-7H-pyrrolo[2,3-d]pyrimidin-4-yl]-2-methyl-piperazine-1-carboxamide] | 1 to 10
CC(C)(C)Oc1ccc(NC(=O)N2CCN(c3ncnc4[nH]c(-c5ccc(Cl)cc5)cc34)CC2)cc1 [P-0017, N-(4-tert-butoxyphenyl)-4-[6-(4-chlorophenyl)-7H-pyrrolo[2,3-d]pyrimidin-4-yl]piperazine-1-carboxamide] | 10 to 200
C[C@@H]1CN(c2ncnc3[nH]c(-c4ccc(Cl)cc4)cc23)CCN1C(=O)N[C@H](C)c1ccc(F)cc1 [P-0022, (2R)-4-[6-(4-chlorophenyl)-7H-pyrrolo[2,3-d]pyrimidin-4-yl]-N-[(1R)-1-(4-fluorophenyl)ethyl]-2-methyl-piperazine-1-carboxamide] | 0.0001 to 1
COc1cccc([C@@H](C)NC(=O)N2CCN(c3ncnc4[nH]c(-c5ccc(Cl)cc5)cc34)C[C@H]2C)c1 [P-0025, (2R)-4-[6-(4-chlorophenyl)-7H-pyrrolo[2,3-d]pyrimidin-4-yl]-N-[(1R)-1-(3-methoxyphenyl)ethyl]-2-methyl-piperazine-1-carboxamide] | 10 to 200
O=S(=O)(NN1CCN(c2ncnc3[nH]c(-c4ccc(F)cc4)cc23)CC1)c1ccc(OC(F)(F)F)cc1 [P-0026, N-[4-[6-(4-fluorophenyl)-7H-pyrrolo[2,3-d]pyrimidin-4-yl]piperazin-1-yl]-4-(trifluoromethoxy)benzenesulfonamide] | 10 to 200
C[C@H](NC(=O)N1CCN(c2ncnc3[nH]c(-c4ccc(F)cc4)cc23)CC1)c1cccc(C(F)(F)F)c1 [P-0033, 4-[6-(4-fluorophenyl)-7H-pyrrolo[2,3-d]pyrimidin-4-yl]-N-[(1S)-1-[3-(trifluoromethyl)phenyl]ethyl]piperazine-1-carboxamide] | 0.0001 to 1
C[C@@H]1CN(c2ncnc3[nH]c(-c4ccc(F)cc4)cc23)CCN1C(=O)N[C@H](C)c1ccc(F)cc1 [P-0034, (2R)-N-[(1R)-1-(4-fluorophenyl)ethyl]-4-[6-(4-fluorophenyl)-7H-pyrrolo[2,3-d]pyrimidin-4-yl]-2-methyl-piperazine-1-carboxamide] | 1 to 10
C[C@H](NC(=O)N1CCN(c2ncnc3[nH]c(-c4ccc(F)cc4)cc23)CC1)c1cccc(F)c1 [P-0036, N-[(1S)-1-(3-fluorophenyl)ethyl]-4-[6-(4-fluorophenyl)-7H-pyrrolo[2,3-d]pyrimidin-4-yl]piperazine-1-carboxamide] | 0.0001 to 1
O=C(NCc1cccc(OC(F)F)c1)N1CCN(c2ncnc3[nH]c(-c4ccc(Cl)cc4)cc23)CC1 [P-0037, 4-[6-(4-chlorophenyl)-7H-pyrrolo[2,3-d]pyrimidin-4-yl]-N-[[3-(difluoromethoxy)phenyl]methyl]piperazine-1-carboxamide] | 1 to 10
COc1cccc([C@H](C)NC(=O)N2CCN(c3ncnc4[nH]c(-c5ccc(Cl)cc5)cc34)CC2)c1 [P-0038, 4-[6-(4-chlorophenyl)-7H-pyrrolo[2,3-d]pyrimidin-4-yl]-N-[(1S)-1-(3-methoxyphenyl)ethyl]piperazine-1-carboxamide] | 0.0001 to 1
Cc1ccc(NC(=O)N2CCN(c3ncnc4[nH]c(-c5ccncc5)cc34)C[C@@H]2C)cn1 [P-0039, (2S)-2-methyl-N-(6-methyl-3-pyridyl)-4-[6-(4-pyridyl)-7H-pyrrolo[2,3-d]pyrimidin-4-yl]piperazine-1-carboxamide] | 1 to 10
C[C@H]1CN(c2ncnc3[nH]c(-c4ccncc4)cc23)CCN1C(=O)NCc1cccc(Cl)c1 [P-0040, (2S)-N-[(3-chlorophenyl)methyl]-2-methyl-4-[6-(4-pyridyl)-7H-pyrrolo[2,3-d]pyrimidin-4-yl]piperazine-1-carboxamide] | 0.0001 to 1
C[C@H]1CN(c2ncnc3[nH]c(-c4ccncc4)cc23)CCN1C(=O)NCc1ccc(F)cc1 [P-0041, (2S)-N-[(4-fluorophenyl)methyl]-2-methyl-4-[6-(4-pyridyl)-7H-pyrrolo[2,3-d]pyrimidin-4-yl]piperazine-1-carboxamide] | 0.0001 to 1
CC[C@H](NC(=O)N1CCN(c2ncnc3[nH]c(-c4ccncc4)cc23)C[C@@H]1C)c1ccccc1 [P-0048, (2S)-2-methyl-N-[(1S)-1-phenylpropyl]-4-[6-(4-pyridyl)-7H-pyrrolo[2,3-d]pyrimidin-4-yl]piperazine-1-carboxamide] | 0.0001 to 1
C[C@H](NC(=O)N1CCN(c2ncnc3[nH]c(-c4ccncc4)cc23)C[C@@H]1C)c1ccc(F)cc1 [P-0049, (2S)-N-[(1S)-1-(4-fluorophenyl)ethyl]-2-methyl-4-[6-(4-pyridyl)-7H-pyrrolo[2,3-d]pyrimidin-4-yl]piperazine-1-carboxamide] | 0.0001 to 1
C[C@H](NC(=O)N1CCN(c2ncnc3[nH]c(-c4ccncc4)cc23)C[C@@H]1C)c1ccc(Cl)cc1 [P-0050, (2S)-N-[(1S)-1-(4-chlorophenyl)ethyl]-2-methyl-4-[6-(4-pyridyl)-7H-pyrrolo[2,3-d]pyrimidin-4-yl]piperazine-1-carboxamide] | 0.0001 to 1
COc1cccc([C@H](C)NC(=O)N2CCN(c3ncnc4[nH]c(-c5ccncc5)cc34)C[C@@H]2C)c1 [P-0051, (2S)-N-[(1S)-1-(3-methoxyphenyl)ethyl]-2-methyl-4-[6-(4-pyridyl)-7H-pyrrolo[2,3-d]pyrimidin-4-yl]piperazine-1-carboxamide] | 0.0001 to 1
CC[C@H](NC(=O)N1CCN(c2ncnc3[nH]c(-c4ccncc4)cc23)C[C@H]1C)c1ccccc1 [P-0054, (2R)-2-methyl-N-[(1S)-1-phenylpropyl]-4-[6-(4-pyridyl)-7H-pyrrolo[2,3-d]pyrimidin-4-yl]piperazine-1-carboxamide] | 0.0001 to 1
Cc1ccc(NC(=O)N2CCN(c3ncnc4[nH]c(-c5ccncc5)cc34)C[C@H]2C)cn1 [P-0055, (2R)-2-methyl-N-(6-methyl-3-pyridyl)-4-[6-(4-pyridyl)-7H-pyrrolo[2,3-d]pyrimidin-4-yl]piperazine-1-carboxamide] | 0.0001 to 1
COc1cccc([C@H](C)NC(=O)N2CCN(c3ncnc4[nH]c(-c5ccc(C#N)cc5)cc34)CC2)c1 [P-0069, 4-[6-(4-cyanophenyl)-7H-pyrrolo[2,3-d]pyrimidin-4-yl]-N-[(1S)-1-(3-methoxyphenyl)ethyl]piperazine-1-carboxamide] | 0.0001 to 1
O=C(NCc1cccc(OC(F)F)c1)N1CCN(c2ncnc3[nH]c(-c4ccc(F)cc4)cc23)CC1 [P-0073, N-[[3-(difluoromethoxy)phenyl]methyl]-4-[6-(4-fluorophenyl)-7H-pyrrolo[2,3-d]pyrimidin-4-yl]piperazine-1-carboxamide] | 1 to 10
O=C(NCc1cccc(OC(F)(F)F)c1)N1CCN(c2ncnc3[nH]c(-c4ccc(F)cc4)cc23)CC1 [P-0076, 4-[6-(4-fluorophenyl)-7H-pyrrolo[2,3-d]pyrimidin-4-yl]-N-[[3-(trifluoromethoxy)phenyl]methyl]piperazine-1-carboxamide] | 1 to 10
CCNC(=O)N1CCN(c2ncnc3[nH]c(-c4ccc(F)cc4)cc23)CC1 [P-0088, N-ethyl-4-[6-(4-fluorophenyl)-7H-pyrrolo[2,3-d]pyrimidin-4-yl]piperazine-1-carboxamide] | 1 to 10
O=C(NCc1ccc(F)cc1)N1CCN(c2ncnc3[nH]c(-c4ccc(F)cc4)cc23)CC1 [P-0090, N-[(4-fluorophenyl)methyl]-4-[6-(4-fluorophenyl)-7H-pyrrolo[2,3-d]pyrimidin-4-yl]piperazine-1-carboxamide] | 0.0001 to 1
COc1cccc(CNC(=O)N2CCN(c3ncnc4[nH]c(-c5ccc(F)cc5)cc34)CC2)n1 [P-0122, 4-[6-(4-fluorophenyl)-7H-pyrrolo[2,3-d]pyrimidin-4-yl]-N-[(6-methoxy-2-pyridyl)methyl]piperazine-1-carboxamide] | 1 to 10
O=C(NCc1ccc(F)cn1)N1CCN(c2ncnc3[nH]c(-c4cccnc4)cc23)CC1 [P-0124, N-[(5-fluoro-2-pyridyl)methyl]-4-[6-(3-pyridyl)-7H-pyrrolo[2,3-d]pyrimidin-4-yl]piperazine-1-carboxamide] | 1 to 10
C[C@H](NC(=O)N1CCN(c2ncnc3[nH]c(-c4ccc(F)cc4)cc23)CC1)c1ccc(F)cc1 [P-0126, N-[(1S)-1-(4-fluorophenyl)ethyl]-4-[6-(4-fluorophenyl)-7H-pyrrolo[2,3-d]pyrimidin-4-yl]piperazine-1-carboxamide] | 0.0001 to 1
